Reference: ChEMBL document CHEMBL1158317, “Porrigenins A and B, novel cytotoxic and antiproliferative sapogenins isolated from Allium porrum” (J Nat Prod, 1997)
Values after ≈ are worked out from the molar mass of the structure shown.

Legend:
Assay type in all cases: functional, cell-based
[1] = tested on: IGR-1; assay: Antiproliferative activity against human IGR-1 cells after 48 hrs by MTT assay; settings: IGR-1, 48 h
[2] = tested on: IGR-1; assay: Antiproliferative activity against human IGR-1 cells after 72 hrs by MTT assay; settings: IGR-1, 72 h
[3] = tested on: J774; assay: Cytotoxicity against mouse J774 cells after 24 hrs by MTT assay; settings: J774, 24 h
[4] = tested on: J774; assay: Antiproliferative activity against mouse J774 cells after 48 hrs by MTT assay; settings: J774, 48 h
[5] = tested on: J774; assay: Antiproliferative activity against mouse J774 cells after 72 hrs by MTT assay; settings: J774, 72 h
[6] = tested on: WEHI-164; assay: Cytotoxicity against mouse WEHI164 cells after 24 hrs by MTT assay; settings: WEHI-164, 24 h
[7] = tested on: WEHI-164; assay: Antiproliferative activity against mouse WEHI164 cells after 48 hrs by MTT assay; settings: WEHI-164, 48 h
[8] = tested on: WEHI-164; assay: Antiproliferative activity against mouse WEHI164 cells after 72 hrs by MTT assay; settings: WEHI-164, 72 h
[9] = tested on: P388; assay: Cytotoxicity against mouse P388 cells after 24 hrs by MTT assay; settings: P388, 24 h
[10] = tested on: P388; assay: Antiproliferative activity against mouse P388 cells after 48 hrs by MTT assay; settings: P388, 48 h
[11] = tested on: P388; assay: Antiproliferative activity against mouse P388 cells after 72 hrs by MTT assay; settings: P388, 72 h
[12] = tested on: IGR-1; assay: Cytotoxicity against human IGR-1 cells after 24 hrs by MTT assay; settings: IGR-1, 24 h

Compound	IC50 [1]	IC50 [2]	IC50 [3]	IC50 [4]	IC50 [5]	IC50 [6]	IC50 [7]	IC50 [8]	IC50 [9]	IC50 [10]	IC50 [11]	IC50 [12]
C[C@@H]1CC[C@@]2(OC1)O[C@H]1C[C@H]3[C@@H]4C[C@@H](O)[C@H]5C[C@@H](O)[C@H](O)C[C@]5(C)[C@H]4CC[C@]3(C)[C@H]1[C@@H]2C [AGIGENIN]	627 µg/mL (≈ 1400 µM)	264 µg/mL (≈ 588 µM)	896 µg/mL (≈ 2000 µM)	655 µg/mL (≈ 1460 µM)	321 µg/mL (≈ 715 µM)	836 µg/mL (≈ 1860 µM)	548 µg/mL (≈ 1220 µM)	210 µg/mL (≈ 468 µM)	609 µg/mL (≈ 1360 µM)	471 µg/mL (≈ 1050 µM)	354 µg/mL (≈ 789 µM)	–
Sc1ncnc2nc[nH]c12 [MERCAPTOPURINE ANHYDROUS]	12.3 µg/mL (≈ 80.8 µM)	1.1 µg/mL (≈ 7.23 µM)	61 µg/mL (≈ 401 µM)	3.6 µg/mL (≈ 23.7 µM)	0.5 µg/mL (≈ 3.29 µM)	83 µg/mL (≈ 545 µM)	42 µg/mL (≈ 276 µM)	2.7 µg/mL (≈ 17.7 µM)	37 µg/mL (≈ 243 µM)	2.1 µg/mL (≈ 13.8 µM)	0.3 µg/mL (≈ 1.97 µM)	51.7 µg/mL (≈ 340 µM)
C[C@@H]1CC[C@@]2(OC1)O[C@H]1C[C@H]3[C@@H]4C[C@@H](O)[C@H]5C[C@@H](O)C(=O)C[C@]5(C)[C@H]4CC[C@]3(C)[C@H]1[C@@H]2C [PORRIGENIN B]	330 µg/mL (≈ 739 µM)	45 µg/mL (≈ 101 µM)	552 µg/mL (≈ 1240 µM)	111 µg/mL (≈ 249 µM)	51 µg/mL (≈ 114 µM)	655 µg/mL (≈ 1470 µM)	344 µg/mL (≈ 770 µM)	92 µg/mL (≈ 206 µM)	837 µg/mL (≈ 1870 µM)	185 µg/mL (≈ 414 µM)	74 µg/mL (≈ 166 µM)	823 µg/mL (≈ 1840 µM)
C[C@@H]1CC[C@@]2(OC1)O[C@H]1C[C@H]3[C@@H]4C[C@@H](O)[C@H]5C[C@@H](O)[C@@H](O)C[C@]5(C)[C@H]4CC[C@]3(C)[C@H]1[C@@H]2C [PORRIGENIN A]	471 µg/mL (≈ 1050 µM)	184 µg/mL (≈ 410 µM)	754 µg/mL (≈ 1680 µM)	515 µg/mL (≈ 1150 µM)	270 µg/mL (≈ 602 µM)	–	277 µg/mL (≈ 617 µM)	110 µg/mL (≈ 245 µM)	617 µg/mL (≈ 1380 µM)	270 µg/mL (≈ 602 µM)	115 µg/mL (≈ 256 µM)	942 µg/mL (≈ 2100 µM)
